Values after ≈ are worked out from the molar mass of the structure shown. “Also recorded” adds a separate entry of the source. Read-outs that look alike come from different tables or passages of the source. Values belong to the molecule of their own block, whether it stands above or below them.
Assays:
[1] = Stability of crystal form DCIII on sealed placement (HPLC purity, XRPD crystal form); assay type: physicochemical
[2] = Mechanical stability: manual grinding, XRPD before and after; assay type: physicochemical; conditions: ground manually in a mortar for 5 min
[3] = Dynamic solubility of crystal form in SGF, FaSSIF, FeSSIF and water (HPLC); assay type: physicochemical
Protocol: When a drug solubility test was performed to predict the performances of a drug in vivo, it is important to simulate in vivo conditions as much as possible. For oral drugs, simulated gastric fluid (SGF), fasted state simulated intestinal fluid (FaSSIF) and fed state simulated intestinal fluid (FeSSIF) may be used to simulate in vivo conditions and predict a feeding effect, and the solubility tested in such media was closer to the solubility in the human body environment.

[4] = Hygroscopicity (Chinese Pharmacopoeia 9103, 25±1° C., 80% relative humidity); assay type: physicochemical; conditions: 80% RH, 24 h
Protocol: According to the description of hygroscopicity characteristics and the definition (9103 Drug Hygroscopicity Experiment Guiding Principles, 2020 edition of General Principles, Chinese Pharmacopoeia, experimental conditions: 25±1° C., 80% relative humidity) of the hygroscopic weight gain: • deliquescent: enough water is absorbed to form liquid • very hygroscopic: the hygroscopic weight gain is not less than 15.0% • hygroscopic: the hygroscopic weight gain is less than 15.0% but not less than 2.0% • slightly hygroscopic: the hygroscopic weight gain is less than 2.0% but not less than 0.2% • no or almost no hygroscopicity: the hygroscopic weight gain is […].

[5] = cited from earlier work
[6] = 25° C./60% RH, 1 month, sealed, listed as crystal form DCIII
[7] = 40° C./75% RH, 1 month, sealed, listed as crystal form DCIII
[8] = 60° C./75% RH, 1 month, sealed, listed as crystal form DCIII

- Crystal form (XRPD) ([1]; 25° C./60% RH, 1 month, sealed): Crystal form DCIII
- Purity (HPLC) ([1]; 25° C./60% RH, 1 month, sealed): 99.45%
- Crystal form (XRPD) [1, 6]: remains unchanged
- Purity (HPLC) [1, 6]: above 99%
- Time for which physicochemical stability is maintained ([1]; 25° C./60% RH, 40° C./75% RH and 60° C./75% RH): at least 1 month
- Crystal form (XRPD) ([1]; 40° C./75% RH, 1 month, sealed): Crystal form DCIII
- Purity (HPLC) ([1]; 40° C./75% RH, 1 month, sealed): 99.49%
- Crystal form (XRPD) [1, 7]: remains unchanged
- Purity (HPLC) [1, 7]: does not present a significant decrease
- Crystal form (XRPD) ([1]; 60° C./75% RH, 1 month, sealed): Crystal form DCIII
- Purity (HPLC) ([1]; 60° C./75% RH, 1 month, sealed): 99.50%
- Crystal form (XRPD) [1, 8]: remains unchanged
- Purity (HPLC) [1, 8]: does not present a significant decrease
- Crystal form (XRPD) ([1]; Onset): Crystal form DCIII
- Purity (HPLC) ([1]; Onset): 99.44%
- Crystallinity after grinding [2]: no significant decrease
- Solubility FaSSIF 1 h ([3]; FaSSIF, equilibrated 1 h): 50 µg/mL (≈ 89.2 µM)
- Solubility FaSSIF 4 h ([3]; FaSSIF, equilibrated 4 h): 40 µg/mL (≈ 71.4 µM)
- Solubility FaSSIF 24 h ([3]; FaSSIF, equilibrated 24 h): 40 µg/mL (≈ 71.4 µM)
- Solubility FeSSIF 1 h ([3]; FeSSIF, equilibrated 1 h): 150 µg/mL (≈ 268 µM)
- Solubility FeSSIF 4 h ([3]; FeSSIF, equilibrated 4 h): 200 µg/mL (≈ 357 µM)
- Solubility FeSSIF 24 h ([3]; FeSSIF, equilibrated 24 h): 80 µg/mL (≈ 143 µM)
- Solubility H2O 1 h ([3]; equilibrated 1 h): 30 µg/mL (≈ 53.5 µM)
- Solubility H2O 4 h ([3]; equilibrated 4 h): 30 µg/mL (≈ 53.5 µM)
- Solubility H2O 24 h ([3]; equilibrated 24 h): 30 µg/mL (≈ 53.5 µM)
- Solubility compared with anhydrous crystal form I (in words) ([3]; SGF, FaSSIF, FeSSIF and pure water): higher solubility
- Solubility SGF 1 h ([3]; SGF, equilibrated 1 h): 7270 µg/mL (≈ 13000 µM)
- Solubility SGF 4 h ([3]; SGF, equilibrated 4 h): 6240 µg/mL (≈ 11100 µM)
- Solubility SGF 24 h ([3]; SGF, equilibrated 24 h): 4540 µg/mL (≈ 8100 µM)
- Weight gain percentage [4]: 0.6%
- Weight gain mass ([4]; onset mass 102.76 mg): 0.64 mg
SMILES: C=CC(=O)N1CCN(c2nc(=O)n(-c3c(C)ccnc3C(C)C)c3nc(-c4c(O)cccc4F)c(F)cc23)[C@@H](C)C1 [Crystal form DCIII, 6-fluoro-7-(2-fluoro-6-hydroxyphenyl)-1-(4-methyl-2-propane-2-ylpyridin-3-yl)-4-[(2S)-2-methyl-4-propyl-2-enoylpiperazin-1-yl]pyridine[2,3-d]pyrimidin-2-one]
- Crystal form before and after grinding (XRPD) [2]: remained unchanged; also recorded: no crystal transformation

- Solubility FaSSIF 1 h ([3]; FaSSIF, equilibrated 1 h): 20 µg/mL (≈ 35.7 µM)
- Solubility FaSSIF 4 h ([3]; FaSSIF, equilibrated 4 h): 10 µg/mL (≈ 17.8 µM)
- Solubility FeSSIF 4 h ([3]; FeSSIF, equilibrated 4 h): 40 µg/mL (≈ 71.4 µM)
- Solubility H2O 1 h ([3]; equilibrated 1 h): 10 µg/mL (≈ 17.8 µM)
- Solubility H2O 4 h ([3]; equilibrated 4 h): 10 µg/mL (≈ 17.8 µM)
- Solubility H2O 24 h ([3]; equilibrated 24 h): 10 µg/mL (≈ 17.8 µM)
- solubility at 24 h ([3]; fasted state simulated intestinal fluid (FaSSIF), fassif, thermodynamic from solid, FaSSIF, equilibrated 24 h, read-out: Solubility FaSSIF 24 h): 30 µg/mL (≈ 53.5 µM)
- solubility at 24 h ([3]; fed state simulated intestinal fluid (FeSSIF), fessif, thermodynamic from solid, FeSSIF, equilibrated 24 h, read-out: Solubility FeSSIF 24 h): 60 µg/mL (≈ 107 µM)
- solubility at 1 h ([3]; simulated gastric fluid (SGF), simulated gastric fluid, thermodynamic from solid, SGF, equilibrated 1 h): 3770 µg/mL (≈ 6720 µM)
- solubility at 4 h ([3]; simulated gastric fluid (SGF), simulated gastric fluid, thermodynamic from solid, SGF, equilibrated 4 h): 3860 µg/mL (≈ 6890 µM)
- solubility at 24 h ([3]; simulated gastric fluid (SGF), simulated gastric fluid, thermodynamic from solid, SGF, equilibrated 24 h, read-out: Solubility SGF 24 h): 3110 µg/mL (≈ 5550 µM)
SMILES: C=CC(=O)N1CCN(c2nc(=O)n(-c3c(C)ccnc3C(C)C)c3nc(-c4c(O)cccc4F)c(F)cc23)[C@@H](C)C1 [Anhydrous crystal form I, 6-fluoro-7-(2-fluoro-6-hydroxyphenyl)-1-(4-methyl-2-propane-2-ylpyridin-3-yl)-4-[(2S)-2-methyl-4-propyl-2-enoylpiperazin-1-yl]pyridine[2,3-d]pyrimidin-2-one, reference compound]
- Solubility (prior-art form, in words) [5]: low solubility

— patent US20240409537A1, “Crystal Form of AMG510 Compound, and Preparation Method Thereof and Use Thereof” (BIRDO (SHANGHAI) PHARMACEUTICAL R&D CO., LTD, priority 2021, published 2024)
